Literature values, collected in US11304902B2, “Pharmaceutical compositions, preparation and uses thereof” (CURADIGM SAS, priority 2014, dated 2022).
Entries after “also recorded” stand apart in the source; their conditions may differ.

Assays:
Conditions in all cases: human CYP enzyme
CYP4B1 = CYP4B1 (Homo sapiens, UniProt P13584)
CYP2C9 = CYP2C9 (Homo sapiens, UniProt P11712)
CYP1B1 = molecular target: T1, CYP1B1 (Homo sapiens, UniProt Q16678)
T1 sequence (Q16678 1-543): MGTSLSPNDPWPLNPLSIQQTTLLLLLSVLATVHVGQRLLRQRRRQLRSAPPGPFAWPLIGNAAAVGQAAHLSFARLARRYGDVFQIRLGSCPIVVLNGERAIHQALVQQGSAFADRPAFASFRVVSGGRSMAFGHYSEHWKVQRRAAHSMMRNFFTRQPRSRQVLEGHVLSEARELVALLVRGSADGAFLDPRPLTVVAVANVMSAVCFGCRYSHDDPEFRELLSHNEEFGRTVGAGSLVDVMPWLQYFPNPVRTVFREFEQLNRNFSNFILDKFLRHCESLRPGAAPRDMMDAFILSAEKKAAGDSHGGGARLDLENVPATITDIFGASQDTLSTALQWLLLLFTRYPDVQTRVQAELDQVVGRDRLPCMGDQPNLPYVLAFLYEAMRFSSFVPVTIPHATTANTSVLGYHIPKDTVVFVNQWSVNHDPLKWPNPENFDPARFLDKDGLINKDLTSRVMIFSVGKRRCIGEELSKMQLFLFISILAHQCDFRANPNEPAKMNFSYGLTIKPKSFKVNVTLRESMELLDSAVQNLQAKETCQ

CYP4A11 = molecular target: T2, CYP4A11 (Homo sapiens, UniProt Q02928)
T2 sequence (Q02928 5-519): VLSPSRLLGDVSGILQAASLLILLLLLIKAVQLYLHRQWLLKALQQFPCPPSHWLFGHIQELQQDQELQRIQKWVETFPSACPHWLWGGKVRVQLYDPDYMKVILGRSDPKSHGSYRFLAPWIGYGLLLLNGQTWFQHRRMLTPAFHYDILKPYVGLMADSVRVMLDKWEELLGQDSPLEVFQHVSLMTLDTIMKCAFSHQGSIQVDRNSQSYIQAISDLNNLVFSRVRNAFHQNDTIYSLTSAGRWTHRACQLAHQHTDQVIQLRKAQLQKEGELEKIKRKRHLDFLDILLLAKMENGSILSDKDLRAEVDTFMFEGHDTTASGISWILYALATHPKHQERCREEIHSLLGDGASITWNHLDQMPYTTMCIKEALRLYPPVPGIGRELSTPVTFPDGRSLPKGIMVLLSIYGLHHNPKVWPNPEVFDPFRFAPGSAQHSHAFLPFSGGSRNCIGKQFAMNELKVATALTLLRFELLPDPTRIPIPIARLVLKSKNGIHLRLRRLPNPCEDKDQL

CYP2C19 = CYP2C19 (Homo sapiens, UniProt P33261)
CYP1A1 = molecular target: T3, CYP1A1 (Homo sapiens, UniProt P04798)
T3 sequence (P04798 1-512): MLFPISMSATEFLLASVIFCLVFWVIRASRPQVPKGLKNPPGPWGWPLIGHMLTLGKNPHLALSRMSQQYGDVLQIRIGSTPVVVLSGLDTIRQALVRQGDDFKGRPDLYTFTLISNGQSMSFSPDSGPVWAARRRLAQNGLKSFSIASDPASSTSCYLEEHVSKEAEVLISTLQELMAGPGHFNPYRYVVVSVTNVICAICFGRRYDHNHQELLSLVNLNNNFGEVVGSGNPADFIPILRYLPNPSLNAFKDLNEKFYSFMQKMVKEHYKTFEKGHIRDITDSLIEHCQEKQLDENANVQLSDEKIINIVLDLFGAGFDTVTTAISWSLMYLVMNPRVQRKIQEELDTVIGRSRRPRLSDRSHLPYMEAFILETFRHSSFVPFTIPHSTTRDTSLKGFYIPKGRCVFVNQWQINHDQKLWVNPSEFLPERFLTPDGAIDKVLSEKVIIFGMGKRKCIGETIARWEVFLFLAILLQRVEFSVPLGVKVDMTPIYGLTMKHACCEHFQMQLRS

CYP2E1 = CYP2E1 (Homo sapiens, UniProt P05181)
CYP2D6 = CYP2D6 (Homo sapiens, UniProt P10635)
CYP4F8 = molecular target: T4, CYP4F8 (Homo sapiens, UniProt P98187)
T4 sequence (P98187 1-520): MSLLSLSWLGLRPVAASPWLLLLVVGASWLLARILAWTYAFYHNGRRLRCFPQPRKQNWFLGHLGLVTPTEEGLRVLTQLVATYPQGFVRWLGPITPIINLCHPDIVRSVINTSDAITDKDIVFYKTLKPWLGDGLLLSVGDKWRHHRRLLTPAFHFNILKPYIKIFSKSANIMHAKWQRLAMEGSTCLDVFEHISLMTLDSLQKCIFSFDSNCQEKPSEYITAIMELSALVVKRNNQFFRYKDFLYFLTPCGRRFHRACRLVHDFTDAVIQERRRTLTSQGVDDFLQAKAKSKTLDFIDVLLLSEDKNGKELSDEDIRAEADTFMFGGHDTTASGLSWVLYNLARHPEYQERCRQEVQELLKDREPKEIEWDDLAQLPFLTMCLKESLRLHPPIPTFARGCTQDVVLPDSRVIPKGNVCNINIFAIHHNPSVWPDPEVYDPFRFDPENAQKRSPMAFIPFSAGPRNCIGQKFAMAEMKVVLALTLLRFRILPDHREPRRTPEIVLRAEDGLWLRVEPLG

CYP2C8 = molecular target: T5, CYP2C8 (Homo sapiens, UniProt P10632)
T5 sequence (P10632 1-490): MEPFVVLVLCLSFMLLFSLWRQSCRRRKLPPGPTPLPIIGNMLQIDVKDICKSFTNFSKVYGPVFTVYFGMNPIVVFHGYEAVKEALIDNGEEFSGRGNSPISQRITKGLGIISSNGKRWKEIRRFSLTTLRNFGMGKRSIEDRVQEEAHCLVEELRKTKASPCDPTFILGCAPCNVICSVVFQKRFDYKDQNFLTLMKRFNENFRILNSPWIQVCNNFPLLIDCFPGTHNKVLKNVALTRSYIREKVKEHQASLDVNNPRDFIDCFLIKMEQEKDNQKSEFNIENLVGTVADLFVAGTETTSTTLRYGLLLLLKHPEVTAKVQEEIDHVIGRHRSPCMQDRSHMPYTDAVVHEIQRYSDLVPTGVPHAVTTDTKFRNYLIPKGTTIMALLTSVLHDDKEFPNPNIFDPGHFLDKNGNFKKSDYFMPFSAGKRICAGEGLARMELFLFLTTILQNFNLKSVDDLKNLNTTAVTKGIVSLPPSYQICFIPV

Chain of CYP2C9 (P11712 whole entry): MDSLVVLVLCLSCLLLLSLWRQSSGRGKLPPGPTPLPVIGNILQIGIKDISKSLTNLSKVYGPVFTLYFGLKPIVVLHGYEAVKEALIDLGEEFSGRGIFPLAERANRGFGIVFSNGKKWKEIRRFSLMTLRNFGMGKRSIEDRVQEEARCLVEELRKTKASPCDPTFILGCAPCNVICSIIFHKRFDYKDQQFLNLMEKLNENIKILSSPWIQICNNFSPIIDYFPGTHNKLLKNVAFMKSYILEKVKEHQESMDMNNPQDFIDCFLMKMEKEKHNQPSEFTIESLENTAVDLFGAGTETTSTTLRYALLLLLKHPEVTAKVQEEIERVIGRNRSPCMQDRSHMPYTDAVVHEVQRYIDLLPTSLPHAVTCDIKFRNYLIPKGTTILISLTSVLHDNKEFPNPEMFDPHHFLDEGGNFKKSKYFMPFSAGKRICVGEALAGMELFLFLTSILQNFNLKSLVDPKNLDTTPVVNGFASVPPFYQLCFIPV
Chain of CYP2C19 (P33261 whole entry): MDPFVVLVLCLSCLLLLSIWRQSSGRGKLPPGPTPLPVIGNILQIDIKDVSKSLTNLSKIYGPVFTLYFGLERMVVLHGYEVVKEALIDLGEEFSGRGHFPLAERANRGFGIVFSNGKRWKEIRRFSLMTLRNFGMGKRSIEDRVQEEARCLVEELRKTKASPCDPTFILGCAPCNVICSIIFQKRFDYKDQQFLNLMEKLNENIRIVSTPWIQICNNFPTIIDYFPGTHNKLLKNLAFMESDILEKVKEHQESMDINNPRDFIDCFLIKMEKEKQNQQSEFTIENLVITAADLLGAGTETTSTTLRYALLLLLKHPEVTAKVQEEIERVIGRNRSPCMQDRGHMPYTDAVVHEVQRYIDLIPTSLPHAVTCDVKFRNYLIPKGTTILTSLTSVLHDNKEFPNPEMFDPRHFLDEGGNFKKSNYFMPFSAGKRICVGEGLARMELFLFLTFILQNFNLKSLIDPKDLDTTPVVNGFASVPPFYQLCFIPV
Chain of CYP2E1 (P05181 whole entry): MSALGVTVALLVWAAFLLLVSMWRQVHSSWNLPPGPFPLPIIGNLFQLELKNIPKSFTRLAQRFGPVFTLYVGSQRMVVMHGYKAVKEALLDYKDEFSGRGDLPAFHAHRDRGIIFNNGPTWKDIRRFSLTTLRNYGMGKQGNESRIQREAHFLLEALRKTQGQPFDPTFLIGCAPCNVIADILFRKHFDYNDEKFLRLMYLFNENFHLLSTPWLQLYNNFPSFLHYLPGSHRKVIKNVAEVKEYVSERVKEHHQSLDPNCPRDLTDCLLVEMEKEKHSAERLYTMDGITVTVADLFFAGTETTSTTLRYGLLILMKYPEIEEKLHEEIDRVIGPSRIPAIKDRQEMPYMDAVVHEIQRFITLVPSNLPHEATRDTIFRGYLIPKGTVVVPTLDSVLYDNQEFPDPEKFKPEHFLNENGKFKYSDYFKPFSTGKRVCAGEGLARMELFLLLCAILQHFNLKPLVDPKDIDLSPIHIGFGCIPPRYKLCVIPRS
Chain of CYP2D6 (P10635 whole entry): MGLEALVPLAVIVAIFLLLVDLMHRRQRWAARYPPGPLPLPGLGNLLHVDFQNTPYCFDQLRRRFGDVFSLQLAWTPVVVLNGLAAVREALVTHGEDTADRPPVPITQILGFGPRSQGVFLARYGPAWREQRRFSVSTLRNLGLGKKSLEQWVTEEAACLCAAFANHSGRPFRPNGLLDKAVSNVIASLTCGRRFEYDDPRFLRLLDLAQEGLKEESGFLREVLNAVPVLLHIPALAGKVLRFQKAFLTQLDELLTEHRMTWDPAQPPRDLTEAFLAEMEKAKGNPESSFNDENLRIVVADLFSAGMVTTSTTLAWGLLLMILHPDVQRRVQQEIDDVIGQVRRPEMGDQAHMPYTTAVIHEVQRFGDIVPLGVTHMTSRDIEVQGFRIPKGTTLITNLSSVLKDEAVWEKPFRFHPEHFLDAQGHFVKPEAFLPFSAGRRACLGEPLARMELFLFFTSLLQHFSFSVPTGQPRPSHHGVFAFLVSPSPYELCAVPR
Chain of CYP4B1 (P13584 whole entry): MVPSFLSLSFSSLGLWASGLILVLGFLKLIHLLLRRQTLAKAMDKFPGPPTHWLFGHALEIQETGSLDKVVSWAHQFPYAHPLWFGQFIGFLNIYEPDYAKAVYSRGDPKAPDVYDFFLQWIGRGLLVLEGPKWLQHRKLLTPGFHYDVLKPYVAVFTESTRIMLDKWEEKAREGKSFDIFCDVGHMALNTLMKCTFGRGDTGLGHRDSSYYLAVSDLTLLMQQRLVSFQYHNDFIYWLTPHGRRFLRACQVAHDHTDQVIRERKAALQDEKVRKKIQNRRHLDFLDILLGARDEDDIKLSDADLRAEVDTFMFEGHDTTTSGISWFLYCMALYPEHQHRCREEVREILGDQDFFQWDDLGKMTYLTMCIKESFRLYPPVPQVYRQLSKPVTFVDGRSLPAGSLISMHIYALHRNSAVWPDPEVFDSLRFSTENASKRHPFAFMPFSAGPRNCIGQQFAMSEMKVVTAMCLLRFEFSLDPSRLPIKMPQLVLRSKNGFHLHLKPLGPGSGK

CCCCC/C=C\C/C=C\C/C=C\C/C=C\CCCC(=O)O [Arachidonic acid, arachidonic acid]
Inhibitor; also recorded: Substrate: role towards CYP2C9 (substrate / inhibitor / inducer) (CYP2C9)
Substrate: role towards CYP4B1 (substrate / inhibitor / inducer) (CYP4B1) | role towards CYP4A11 (substrate / inhibitor / inducer) (CYP4A11) | role towards CYP2C19 (substrate / inhibitor / inducer) (CYP2C19) | role towards CYP4F8 (substrate / inhibitor / inducer) (CYP4F8) | role towards CYP2C8 (substrate / inhibitor / inducer) (CYP2C8)
Inhibitor: role towards CYP1B1 (substrate / inhibitor / inducer) (CYP1B1) | role towards CYP1A1 (substrate / inhibitor / inducer) (CYP1A1) | role towards CYP2E1 (substrate / inhibitor / inducer) (CYP2E1) | role towards CYP2D6 (substrate / inhibitor / inducer) (CYP2D6)
